Results reported in patent US9637491B2, “Pyrazolo[4,3-D]pyrimidines as kinase inhibitors” (Origenis GmbH, priority 2012, dated 2017).

Target: T1, SYK kinase (Homo sapiens, UniProt P43405)
T1 construct: purchased Invitrogen, Carlsbad
Test: SYK assay (OMNIA Kinase Assay, Invitrogen)
Type: biochemical
Conditions: SYK Activities; 1 mM ATP, 10 μM Omnia Peptide Substrate Tyr 7, 30° C.
Description: In the assay OMNIA® KINASE ASSAY by Invitrogen Corporation (Carlsbad) the effect of invention of a compound on the phosphorylation is determined by measurement of fluorescence intensity of a chelation-enhanced fluorophore called SOX. Upon phosphorylation of the peptide by the kinase of interest, Mg2+ is chelated to form a bridge between the SOX moiety and the phosphate group that is transferred to the specific tyrosine on the peptide. The fluorescence intensity is directly proportional to the amount of peptide phosphorylation.
To the wells of an 384 well small volume plate (Greiner, Frickenhausen) are added (i) the compound under test in 5% DMSO/distilled water (2 μl), (ii) 16 μl of the master mix containing ATP, DTT, Kinase Reaction Buffer, Omina Peptide Substrate Tyr 7 resulting in a final concentration of 1 mM ATP, 0.2 mM DTT and 10 μM Peptide Substrate. The Master Mix and the assay plate was incubated to reaction temperature before the measurement (30° C.). The reaction was started with addition of (iii) 2 μl 4 μg/ml SYK kinase (Invitrogen, Carlsbad). During measurement fluorescence intensitiy readings were collected using a TECAN M1000 at a wavelength of λex 360/λem 485 nm every 30 s for 30 minutes. The reaction velocity was plotted versus the inhibitor concentration to determine the IC50 using XLFit 5.0 (IDBS, Guildford) to fit to a sigmoidal dose response curve.

| SMILES | IC50 [nM] |
| --- | --- |
| O=C1COc2ccc(Nc3nc(C4CC4)nc4cn[nH]c34)cc2N1 [Example 21, 6-((5-cyclopropyl-1H-pyrazolo[4,3-d]pyrimidin-7-yl)amino)-2H-benzo[b][1,4]oxazin-3(4H)-one] | 10 to 100 |
| O=C1COc2ccc(Nc3nc(-c4ccc5cn[nH]c5c4)nc4cn[nH]c34)cc2N1 [Example 519, 6-((5-(1H-indazol-6-yl)-1H-pyrazolo[4,3-d]pyrimidin-7-yl)amino)-2H-benzo[b][1,4]oxazin-3(4H)-one] | < 10 |
| Cc1nn(C2CCOCC2)cc1Nc1nc(-c2ccoc2)nc2cn[nH]c12 [Example 294, 5-(furan-3-yl)-N-(3-methyl-1-(tetrahydro-2H-pyran-4-yl)-1H-pyrazol-4-yl)-1H-pyrazolo[4,3-d]pyrimidin-7-amine] | 100 to 1000 |
| CC(C)Cn1cc(Nc2nc(-c3cnn(C)c3)nc3cn[nH]c23)cn1 [Example 437, N-(1-isobutyl-1H-pyrazol-4-yl)-5-(1-methyl-1H-pyrazol-4-yl)-1H-pyrazolo[4,3-d]pyrimidin-7-amine] | 10 to 100 |
| CC(C)c1nc(Nc2ccc(N3CCOCC3)cc2)c2[nH]ncc2n1 [Example 181, 5-isopropyl-N-(4-morpholinophenyl)-1H-pyrazolo[4,3-d]pyrimidin-7-amine] | 100 to 1000 |
| c1cc(-c2nc(Nc3cnn(C4CCOCC4)c3)c3[nH]ncc3n2)co1 [Example 146, 5-(furan-3-yl)-N-(1-(tetrahydro-2H-pyran-4-yl)-1H-pyrazol-4-yl)-1H-pyrazolo[4,3-d]pyrimidin-7-amine] | < 10 |
| COC(=O)c1cccc(-c2nc(Nc3cnn(C4CCOCC4)c3)c3[nH]ncc3n2)c1 [Example 216, methyl 3-(7-((1-(tetrahydro-2H-pyran-4-yl)-1H-pyrazol-4-yl)amino)-1H-pyrazolo[4,3-d]pyrimidin-5-yl)benzoate] | 10 to 100 |
| CC(C)(C)N1CCN(c2ccc(Nc3nc(-c4ccccc4F)nc4cn[nH]c34)cc2)CC1 [Example 23, N-(4-(4-(tert-butyl)piperazin-1-yl)phenyl)-5-(2-fluorophenyl)-1H-pyrazolo[4,3-d]pyrimidin-7-amine] | 100 to 1000 |
| CN1CCC(n2cc(Nc3nc(-c4ccco4)nc4cn[nH]c34)cn2)CC1 [Example 198, 5-(furan-2-yl)-N-(1-(1-methylpiperidin-4-yl)-1H-pyrazol-4-yl)-1H-pyrazolo[4,3-d]pyrimidin-7-amine] | < 10 |
| CC(C)(C)N1CCN(c2ccc(Nc3nc(-c4ccco4)nc4cn[nH]c34)cc2)CC1 [Example 112, N-(4-(4-(tert-butyl)piperazin-1-yl)phenyl)-5-(furan-2-yl)-1H-pyrazolo[4,3-d]pyrimidin-7-amine] | < 10 |
| CC(C)(C)N1CCN(c2ccc(Nc3nc(-c4c(F)cccc4F)nc4cn[nH]c34)cc2)CC1 [Example 10, N-(4-(4-(tert-butyl)piperazin-1-yl)phenyl)-5-(2,6-difluorophenyl)-1H-pyrazolo[4,3-d]pyrimidin-7-amine] | 10 to 100 |
| CC(=O)N1CCC(n2cc(Nc3nc(-c4cccc(NS(C)(=O)=O)c4)nc4cn[nH]c34)cn2)CC1 [Example 266, N-(3-(7-((1-(1-acetylpiperidin-4-yl)-1H-pyrazol-4-yl)amino)-1H-pyrazolo[4,3-d]pyrimidin-5-yl)phenyl)methanesulfonamide] | 100 to 1000 |
| COc1ccc(Nc2nc(-c3ccno3)nc3cn[nH]c23)cc1OC [Example 68, N-(3,4-dimethoxyphenyl)-5-(isoxazol-5-yl)-1H-pyrazolo[4,3-d]pyrimidin-7-amine] | 100 to 1000 |
| c1nn(C2CCNC2)cc1Nc1nc(-c2ccc3cn[nH]c3c2)nc2cn[nH]c12 (stereo not shown) [Example 447, 5-(1H-indazol-6-yl)-N-(1-(pyrrolidin-3-yl)-1H-pyrazol-4-yl)-1H-pyrazolo[4,3-d]pyrimidin-7-amine] | < 10 |
| CC(=O)Nc1cc(Nc2nc(-c3c(F)cccc3F)nc3cn[nH]c23)ccc1N1CCN(C(C)=O)CC1 [Example 538, N-(2-(4-acetylpiperazin-1-yl)-5-((5-(2,6-difluorophenyl)-1H-pyrazolo[4,3-d]pyrimidin-7-yl)amino)phenyl)acetamide] | 100 to 1000 |
| CC(=O)N1CCN(c2ccc(Nc3nc(-c4ccc5cn[nH]c5c4)nc4cn[nH]c34)cc2)CC1 [Example 50, 1-(4-(4-((5-(1H-indazol-6-yl)-1H-pyrazolo[4,3-d]pyrimidin-7-yl)amino)phenyl)piperazin-1-yl)ethan-1-one] | < 10 |
| COCCn1cc(-c2nc(Nc3ccc(N4CCOCC4)cc3)c3[nH]ncc3n2)cn1 [Example 393, 5-(1-(2-methoxyethyl)-1H-pyrazol-4-yl)-N-(4-morpholinophenyl)-1H-pyrazolo[4,3-d]pyrimidin-7-amine] | 100 to 1000 |
| CC(C)Cn1cc(Nc2nc(-c3cocn3)nc3cn[nH]c23)cn1 [Example 246, N-(1-isobutyl-1H-pyrazol-4-yl)-5-(oxazol-4-yl)-1H-pyrazolo[4,3-d]pyrimidin-7-amine] | 10 to 100 |
| CC(C)(C)n1cc(Nc2nc(-c3ncco3)nc3cn[nH]c23)cn1 [Example 249, N-(1-(tert-butyl)-1H-pyrazol-4-yl)-5-(oxazol-2-yl)-1H-pyrazolo[4,3-d]pyrimidin-7-amine] | 100 to 1000 |
| CC(C)(C#N)n1cc(Nc2nc(-c3ccc4cn[nH]c4c3)nc3cn[nH]c23)cn1 [Example 416, 2-(4-((5-(1H-indazol-6-yl)-1H-pyrazolo[4,3-d]pyrimidin-7-yl)amino)-1H-pyrazol-1-yl)-2-methylpropanenitrile] | 10 to 100 |
| CC(C)(C)n1cc(Nc2nc(-c3ccco3)nc3cn[nH]c23)cn1 [Example 212, N-(1-(tert-butyl)-1H-pyrazol-4-yl)-5-(furan-2-yl)-1H-pyrazolo[4,3-d]pyrimidin-7-amine] | 10 to 100 |
| O=C1OCCN1c1ccc(Nc2nc(-c3ccoc3)nc3cn[nH]c23)cc1 [Example 98] | 100 to 1000 |
| COc1ccc(Nc2nc(-c3ccco3)nc3cn[nH]c23)cc1OC [Example 87, N-(3,4-dimethoxyphenyl)-5-(furan-2-yl)-1H-pyrazolo[4,3-d]pyrimidin-7-amine] | 10 to 100 |
| CC(C)Cn1cc(Nc2nc(-c3cccc(NS(C)(=O)=O)c3)nc3cn[nH]c23)cn1 [Example 261, N-(3-(7-((1-isobutyl-1H-pyrazol-4-yl)amino)-1H-pyrazolo[4,3-d]pyrimidin-5-yl)phenyl)methanesulfonamide] | 100 to 1000 |
| CC(C)(C)n1cc(Nc2nc(-c3ccc4cn[nH]c4c3)nc3cn[nH]c23)cn1 [Example 415, N-(1-(tert-butyl)-1H-pyrazol-4-yl)-5-(1H-indazol-6-yl)-1H-pyrazolo[4,3-d]pyrimidin-7-amine] | 10 to 100 |
| CC(=O)N1CCC(n2cc(Nc3nc(-c4ccco4)nc4cn[nH]c34)cn2)CC1 [Example 196, 1-(4-(4-((5-(furan-2-yl)-1H-pyrazolo[4,3-d]pyrimidin-7-yl)amino)-1H-pyrazol-1-yl)piperidin-1-yl)ethan-1-one] | < 10 |
| CC(C)n1cc(Nc2nc(-c3cccc(S(N)(=O)=O)c3)nc3cn[nH]c23)cn1 [Example 426, 3-(7-((1-isopropyl-1H-pyrazol-4-yl)amino)-1H-pyrazolo[4,3-d]pyrimidin-5-yl)benzenesulfonamide] | 10 to 100 |
| COCCCn1cc(Nc2nc(-c3cccc(NS(C)(=O)=O)c3)nc3cn[nH]c23)cn1 [Example 260, N-(3-(7-((1-(3-methoxypropyl)-1H-pyrazol-4-yl)amino)-1H-pyrazolo[4,3-d]pyrimidin-5-yl)phenyl)methanesulfonamide] | 10 to 100 |
